Results from patent US20190365843A1, “Antimicrobial Activity of Bioactive Compounds and Their Derivatives” (priority 2018, published 2019).

Tests used:
[1] = tested on: Proteus sp.; assay: Agar diffusion growth inhibition zone, Proteus sp.; assay type: cell-based, Proteus species
Method: (§1) Among the bacterial agents tested Gram positive and Gram negative bacterial groups represented by Staphylococcus aureus and Enterococcus species and pathogenic members of Enterobacteriaceae, Vibronaceae, Aeromonadaceae, Pseudomonadaceae were tested. Freshly sub-cultured bacterial strains were inoculated into peptone water and incubated for 4 hours at 37° C. and adjusted to a turbidity of 0.5 (Gram Negative Bacilli), 1 (Gram Positive Cocci) and 4 (Pus cells, GNB, & few Budding yeast cells) Mc Farland standards (10^8 CFU/ml) respectively.
(§2) The different bioactive compounds and their derivatives were dissolved and diluted with solvents (DMSO), number of subsequent dilutions was performed to obtain different concentrations of the bioactive compounds and their derivatives. (Working Concentrations).
(§3) Agar well diffusion method is widely used to evaluate the antimicrobial activity of plants or other synthetic products. The suspension (microbial inoculum) was used to inoculate into Muller Hinton Agar Petri plates by lawn culture. Well (diameter 6 mm) were punched in the agar by sterile borer and filled with 50 μl of dissolved extracts. Plates were incubated in incubator at 37° C. for 24 hours and measured the growth inhibition zone diameters in mm compared with that of control (DMSO) showing no growth.
(§4) The bioactive compounds were tested with desired concentrations in 6 mm filter paper discs (Whatman, no. 3) were impregnated with 10 μL of each of the different dilutions. The discs were allowed to remain at room temperature until complete diluent evaporation and kept under refrigeration until ready to be used. 10 μL of diluents used to products were used as control. Tests were performed by Agar disk-diffusion testing method, which is the official method used in many clinical microbiology laboratories for routine antimicrobial susceptibility testing.
(§5) Similar to the procedure used in Agar well diffusion method, the suspension (microbial inoculum) was used to inoculate into Muller Hinton Agar Petri plates by lawn culture. Then, filter paper discs (about 6 mm in diameter), containing the test compound at a desired concentration, were placed on the agar surface. The Petri dishes were incubated under suitable incubation conditions.
(§6) Bioactive compounds showing zone of inhibition beyond the size of 6 mm are considered to be having an anti-microbial activity.

[2] = tested on: Pseudomonas sp.; assay: Agar diffusion growth inhibition zone, Pseudomonas sp.; assay type: cell-based, Pseudomonas species; details: for zone of inhibition: Pseudomonas sp., 6 mm = no activity
Method: (§7) Agar well diffusion method is widely used to evaluate the antimicrobial activity of plants or other synthetic products. The suspension (microbial inoculum) was used to inoculate into Muller Hinton Agar Petri plates by lawn culture. Well (diameter 6 mm) were punched in the agar by sterile borer and filled with 50 μl of dissolved extracts. Plates were incubated in incubator at 37° C. for 24 hours and measured the growth inhibition zone diameters in mm compared with that of control (DMSO) showing no growth. The antimicrobial agent diffuses in the agar medium and inhibits the growth of the microbial strain tested (Valgas et al., (2016) Methods for in vitro evaluating antimicrobial activity: A review. Journal of Pharmaceutical Analysis. 6(2):71-9).
(§8) Similar to the procedure used in Agar well diffusion method, the suspension (microbial inoculum) was used to inoculate into Muller Hinton Agar Petri plates by lawn culture. Then, filter paper discs (about 6 mm in diameter), containing the test compound at a desired concentration, were placed on the agar surface. The Petri dishes were incubated under suitable incubation conditions. Generally, antimicrobial agent diffuses into the agar and inhibits germination and growth of the test microorganism and then the diameters of inhibition growth zones are measured (Valgas et al., (2007) Screening methods to determine antibacterial activity of natural products. Brazilian Journal of Microbiology. 38:369-80; Balouiri M et al., (2016) Methods for in vitro evaluating antimicrobial activity: A review. Journal of Pharmaceutical Analysis. 6(2):71-9).

[3] = tested on: Candida abicans; assay: Agar diffusion growth inhibition zone, Candida abicans; assay type: cell-based, Candida albicans; details: 6 mm = no activity
Method: as §1, §2, §3, §4, §5, §6

[4] = tested on: Citrobacter sp.; assay: Agar diffusion growth inhibition zone, Citrobacter sp.; assay type: cell-based, Citrobacter species; details: 6 mm = no activity
Method: as §1, §2, §3, §4, §5, §6

[5] = tested on: Shigella sp.; assay: Agar diffusion growth inhibition zone, Shigella sp.; assay type: cell-based, Shigella species; details: for zone of inhibition: Shigella sp., 6 mm = no activity
Method: as §7, §8

[6] = tested on: EAEC; assay: Agar diffusion growth inhibition zone, EAEC; assay type: cell-based, Enteroaggregative E. coli
Method: as §1, §2, §3, §4, §5, §6

[7] = tested on: Enterococcus sp.; assay: Agar diffusion growth inhibition zone, Enterococcus sp.; assay type: cell-based, Enterococcus species; details: 6 mm = no activity
Method: as §1, §2, §3, §4, §5, §6

[8] = tested on: Vibrio cholera; assay: Agar diffusion growth inhibition zone, Vibrio cholera; assay type: cell-based, Vibrio cholerae; details: for zone of inhibition: Vibrio cholera, 6 mm = no activity
Method: as §7, §8

[9] = tested on: ETEC; assay: Agar diffusion growth inhibition zone, ETEC; assay type: cell-based, Enterotoxigenic E. coli; details: for inhibition of growth / zone of inhibition: ETEC; for zone of inhibition: 6 mm = no activity
Method: as §7, §8

[10] = tested on: Aeromonas sp.; assay: Agar diffusion growth inhibition zone, Aeromonas sp.; assay type: cell-based, Aeromonas species
Method: as §1, §2, §3, §4, §5, §6

[11] = tested on: S. aureus; assay: Agar diffusion growth inhibition zone, S. aureus; assay type: cell-based, Staphylococcus aureus
Method: as §1, §2, §3, §4, §5, §6

[12] = tested on: E. coli ATCC 25922; assay: Agar diffusion growth inhibition zone, E. coli ATCC 25922; assay type: cell-based; details: 6 mm = no activity
Method: as §1, §2, §3, §4, §5, §6

[13] = tested on: Klebsiella sp.; assay: Agar diffusion growth inhibition zone, Klebsiella sp.; assay type: cell-based, Klebsiella species; details: 6 mm = no activity
Method: as §1, §2, §3, §4, §5, §6

[14] = tested on: Salmonella typhimurium; assay: Agar diffusion growth inhibition zone, Salmonella typhimurium; assay type: cell-based; details: 6 mm = no activity
Method: as §1, §2, §3, §4, §5, §6

[15] = tested on: Pleisiomonas sp.; assay: Agar diffusion growth inhibition zone, Pleisiomonas sp.; assay type: cell-based, Pleisiomonas species; details: for inhibition of growth: Plesiomonas species
Method: as §1, §2, §3, §4, §5, §6

[16] = Proteus sp., 150 mg, 6 mm = no activity
[17] = Aeromonas sp., 100 mg, 6 mm = no activity
[18] = Aeromonas sp., 150 mg, 6 mm = no activity
[19] = Pleisiomonas sp., 100 mg, 6 mm = no activity
[20] = Pleisiomonas sp., 150 mg, 6 mm = no activity

For `CCOC(=O)Oc1ccc(/C=C/C(=O)COC(=O)/C=C/c2ccc(OC(=O)OCC)c(OC)c2)cc1OC` [compound 7, Diethylcalebin-A dicarbonate], the zone of inhibition at 150 mg/mL [1, 16] was 6 mm, the zone of inhibition at 100000 µg/disc ([2]; Pseudomonas) was 6 mm and the zone of inhibition at 150000 µg/disc ([2]; Pseudomonas) was 6 mm. It also gave a zone of inhibition at 100 mg/mL ([3]; 100 mg) of 6 mm, a zone of inhibition at 150 mg/mL ([3]; 150 mg) of 6 mm and a zone of inhibition at 100 mg/mL ([4]; 100 mg) of 6 mm. For the same compound, the zone of inhibition at 150 mg/mL ([4]; 150 mg) was 6 mm, the zone of inhibition at 100000 µg/disc ([5]; Shigella) was 6 mm and the zone of inhibition at 150000 µg/disc ([5]; Shigella) was 6 mm. For the same compound, the “inhibition of growth” value [6] was “inhibited”, the zone of inhibition at 100 mg/mL ([6]; Escherichia coli, 100 mg, 6 mm = no activity) was 9 mm and the zone of inhibition at 150 mg/mL ([6]; Escherichia coli, 150 mg, 6 mm = no activity) was 9 mm. The zone of inhibition at 100 mg/mL ([7]; 100 mg) was 6 mm, the zone of inhibition at 150 mg/mL ([7]; 150 mg) was 6 mm and the zone of inhibition at 100000 µg/disc ([8]; Vibrio cholerae) was 6 mm. The zone of inhibition at 150000 µg/disc ([8]; Vibrio cholerae) was 6 mm, the “inhibition of growth” value [9] was “significantly inhibited the growth” and the zone of inhibition at 100000 µg/disc ([9]; Escherichia coli) was 10 mm. For the same compound, the zone of inhibition at 150000 µg/disc ([9]; Escherichia coli) was 10 mm, the zone of inhibition at 100 mg/mL [10, 17] was 6 mm and the zone of inhibition at 150 mg/mL [10, 18] was 6 mm. The zone of inhibition at 100 mg/mL ([11]; Staphylococcus aureus, 100 mg, 6 mm = no activity) was 6 mm, the zone of inhibition at 150 mg/mL ([11]; Staphylococcus aureus, 150 mg, 6 mm = no activity) was 6 mm and the zone of inhibition at 100 mg/mL ([12]; Escherichia coli, ATCC25922, 100 mg) was 6 mm. The zone of inhibition at 150 mg/mL ([12]; Escherichia coli, ATCC25922, 150 mg) was 6 mm, the zone of inhibition at 100 mg/mL ([13]; 100 mg) was 6 mm and the zone of inhibition at 150 mg/mL ([13]; 150 mg) was 6 mm. For the same compound, the zone of inhibition at 100 mg/mL ([14]; Salmonella enterica, 100 mg) was 6 mm, the zone of inhibition at 150 mg/mL ([14]; Salmonella enterica, 150 mg) was 6 mm and the zone of inhibition at 100 mg/mL [15, 19] was 10 mm. For the same compound, the zone of inhibition at 150 mg/mL [15, 20] was 10 mm and the “inhibition of growth” value [15] was “inhibited”.

Demethoxycurcumin [compound 2] showed a zone of inhibition ([1]; Proteus sp., 100 mg, 6 mm = no activity) of 12 mm, a zone of inhibition [1, 16] of 12 mm and a zone of inhibition ([1]; Proteus species, at both concentrations of 100 mg and 150 mg) of 12 mm. It also gave a zone of inhibition ([2]; 100 mg) of 6 mm, a zone of inhibition ([2]; 150 mg) of 6 mm and a zone of inhibition ([3]; 100 mg) of 6 mm. The zone of inhibition ([3]; 150 mg) was 6 mm, the zone of inhibition ([4]; 100 mg) was 6 mm and the zone of inhibition ([4]; 150 mg) was 6 mm. For the same compound, the zone of inhibition ([5]; 100 mg) was 6 mm, the zone of inhibition ([5]; 150 mg) was 6 mm and the zone of inhibition ([6]; 100 mg, 6 mm = no activity) was 6 mm. For the same compound, the zone of inhibition ([6]; 150 mg, 6 mm = no activity) was 6 mm, the zone of inhibition ([7]; 100 mg) was 6 mm and the zone of inhibition ([7]; 150 mg) was 6 mm. For the same compound, the zone of inhibition ([8]; 100 mg) was 6 mm, the zone of inhibition ([8]; 150 mg) was 6 mm and the “inhibition of growth” value [9] was “significantly inhibited the growth”. For the same compound, the zone of inhibition ([9]; 100 mg) was 12 mm, the zone of inhibition ([9]; 150 mg) was 12 mm and the zone of inhibition [10, 17] was 9 mm. The zone of inhibition [10, 18] was 9 mm, the “inhibition of growth” value ([10]; Aeromonas species) was “inhibited the growth” and the zone of inhibition ([11]; 100 mg, 6 mm = no activity) was 11 mm. The zone of inhibition ([11]; 150 mg, 6 mm = no activity) was 11 mm, the zone of inhibition ([11]; concentration not given) was 11 mm and the zone of inhibition ([12]; 100 mg) was 6 mm. The zone of inhibition ([12]; 150 mg) was 6 mm, the zone of inhibition ([13]; 100 mg) was 6 mm and the zone of inhibition ([13]; 150 mg) was 6 mm. For the same compound, the zone of inhibition ([14]; 100 mg) was 6 mm, the zone of inhibition ([14]; 150 mg) was 6 mm and the zone of inhibition [15, 19] was 11 mm. For the same compound, the zone of inhibition [15, 20] was 11 mm and the “inhibition of growth” value [15] was “inhibited”.
